Measurements: patent US20030120046A1, “Radioisotope-labeled complexes of glucose derivatives and kits for the preparation thereof” (priority 2000, published 2003)
Read-outs that look alike come from different tables or passages of the source.

How the values were obtained:
[1] = Stability test of radiopharmaceuticals in the human plasma (purity by TLC); type: in vitro ADME; conditions: room temperature, mean of 3 experiments
Protocol: (§1) The stability of radiopharmaceuticals was expressed as the purity of radiopharmaceutical at a given time, and measured after 0, 2, 4 and 6 hrs in a physiological saline and the human plasma, respectively. […] After well stirring the ingredients in each vial, the stability was measured at given times at room temperature.
(§2) The stability was measured as follows. 5 μl of each radiopharmaceutical was deposited in the lower part of TLC and was developed using methyl ethyl ketone (or acetone) and 0.9% physiological saline, respectively. Upon completion of development, each TLC was equally divided into 2 parts and the radioactivity of each part was measured using gamma counter. The stability was calculated by measurement of the purity from the obtained radioactivity. […] The purity of radiopharmaceuticals is calculated as follows.
(§3) 100%−[(radioactivity in the upper part of TLC developed with acetone÷radioactivity in the whole TLC developed with acetone)+(radioactivity in the lower part of TLC developed with 0.9% physiological saline÷radioactivity in the whole TLC developed with 0.9% physiological saline)]×100%

[2] = Stability test of radiopharmaceuticals in a physiological saline (purity by TLC); type: physicochemical; conditions: room temperature, mean of 3 experiments
Protocol: as §1, §2, §3

tumor = conditions: background art, in words; cited from earlier work
VX-2 tumor cells = conditions: for Normal region counts / Tumor counts: 1.5 mCi i.v.
Protocol: Further, ^99mTc-labeled radiopharmaceuticals were tested for their stability in a physiological saline and the human plasma with the lapse of time (see Example 4). […] The radiopharmaceuticals of the present invention were tested for biodistribution and the uptake level in rabbits transplanted with VX-2 tumor cells and then, compared with ^99mTc-MIBI currently used for imaging tumor in nuclear medicine (see Example 5). More specifically, ^99mTc-labeled glucose derivatives were injected to rabbits transplanted with tumor cells to obtain image using gamma camera. Then, the organs were removed to measure biodistribution and the uptake level of radiopharmaceuticals by calculating % ID (injected dose)/g, indicative of the uptake level of the injected radiopharmaceuticals per weight of tissues.
VX-2 tumor cells were ground in 2 ml of a physiological saline and then, transplanted via intramuscular injection to the right thigh muscle of three rabbits (New Zealand White species) weighing 2.5 to 3 kg using a syringe. Then, the rabbits were bred for 3 weeks to grow tumor to have a diameter of 2 to 3 cm. […] After injection, the rabbits were laid down under gamma camera and the gamma camera was controlled to cover the whole body and images were obtained for 15 minutes at 1 and 3 hours after injection, respectively.
The image of ^99mTc-MIBI was obtained at 10 minutes after injection. […] It is conventional that the standardized imaging time cannot be applied for radiopharmaceuticals since their physical, chemical and physiological properties all are different. Thus, the optimal imaging time may be set depending upon the employed radiopharmaceutical.
After obtaining image of the regions of interest, the uptake level of radioactivity was calculated from counts (unit of radioactivity) obtained by a particular program equipped with a gamma camera.

[3] = anterior image, 10 minutes after injection (footnote)
[4] = posterior image, 10 minutes after injection (footnote)

Compound | Purity of radiopharmaceuticals at given times ([1]; 0 h) | Purity of radiopharmaceuticals at given times ([1]; 2 h) | Purity of radiopharmaceuticals at given times ([1]; 4 h) | Purity of radiopharmaceuticals at given times ([1]; 6 h) | Purity of radiopharmaceuticals at given times ([2]; 0 h) | Purity of radiopharmaceuticals at given times ([2]; 2 h) | Purity of radiopharmaceuticals at given times ([2]; 4 h) | Purity of radiopharmaceuticals at given times ([2]; 6 h) | uptake rate in the abdomen (tumor) | uptake rate in tumor (tumor) | wash-out rate in vivo (tumor) | Tumor/Normal ratio (VX-2 tumor cells; [3]) | Normal region counts (VX-2 tumor cells; [3]) | Tumor counts (VX-2 tumor cells; [3]) | Tumor uptake/normal region uptake ratio (VX-2 tumor cells; anterior image, 10 minutes after injection (footnote), Mean ± S.D. from 3 experiments) | wash-out in vivo (VX-2 tumor cells; image cannot be practically obtained at 30 minutes or more after injection, in words) | Tumor/Normal ratio (VX-2 tumor cells; [4]) | Normal region counts (VX-2 tumor cells; [4]) | Tumor counts (VX-2 tumor cells; [4])
^99mTc-glucosamine | 99.5% | 95.4% | 95.0% | 92.4% | 99.5% | 98.9% | 98.0% | 97.6% |  |  |  |  |  |  |  |  |  |  | 
[99Tc].[C-]#[N+]CC(C)(C)OC.[C-]#[N+]CC(C)(C)OC.[C-]#[N+]CC(C)(C)OC.[C-]#[N+]CC(C)(C)OC.[C-]#[N+]CC(C)(C)OC.[C-]#[N+]CC(C)(C)OC [^99mTc-MIBI, ^99mTc-MIBI (methoxy isobutyl isonitrile)] |  |  |  |  |  |  |  |  | high | unsatisfactory | high | 1.7 | 5829 counts | 9931 counts | 2.22 ± 0.87 | rapidly washed out | 2.0 | 6566 counts | 13047 counts
